Among the data in patent publication US5158950A, “1,3-dithiol-2-ylidene derivatives and process for the preparation thereof” (Yuhan Corporation, Ltd., priority 1987, dated 1992) are LD50, ED50 and inhibition in vivo values, retold here.

Series [1] in a line: Acute oral toxicity, median lethal dose (LD50). As to conditions: mouse, in vivo, male ICR mice, deaths counted for 14 days. The protocol:
Each test compound was suspended in a 0.2% CMC-Na solution in various concentrations to make test suspension. The test suspensions were administered orally to male ICR mice (10 in each group) at various doses. The number of dead mice was counted for 14 days and the value of mediam lethal dose (LD50, g/kg) was calculated by the Hitchifield-Wilcoxon method.

For series [2], the system named is serum ALT level after CCl4 treatment. The series can be described thus: Determination of 50% inhibitory dose (ID50) against CCl4-induced serum ALT increase. The class given is in vivo. The following applies: Mus musculus; mice, oral, 6 h before CCl4; estimated from dose-response curve at 50, 25, 12.5, 6.25 mg/kg. Here is the method:
Principle The various doses of test compounds were administered to mice, followed by the treatment with CCl4 after 6 hours. 24 Hours after the CCl4 treatment, the serum ALT level of the animals were determined. The hepatoprotective effect of the test compounds and the doses were plotted to form dose-response curves. The ID50 doses of the test compounds were estimated from the dose-response curves.
Method; The experimental animals were divided into normal, CCl4 treated and test compound treated groups. Each group consisted of 8 mice with body weight of 20-25 grams. The test compounds were suspended in 0.2% CMC-Na solution and administered orally at a dose of 50 mg, 25 mg, 12.5 mg, or 6.25 mg/125 ml/kg body weight. Only the vehicle, 0.2% CMC-Na solution, was administered to the normal and to the CCl4 treated group instead of the test compound suspension. 6 Hours after the drug administration, the CCl4 solution in olive oil was administered orally to the CCl4 treated and the test compound treated groups at the dose of 50 ul/25 ml olive oil/kg body weight. The normal group was administered olive oil only at the same dose. 24 Hours after the CCl4 administration, blood samples were collected from the orbital sinus of the animals and the sera were obtained by centrifugation. The serum ALT activities were monitored and the hepatoprotective effect of the test compounds were calculated by the same method as described in experiment 1. The inhibitory percentages were plotted against the corresponding doses of the test compounds to make dose-response curves. The 50% inhibitory dose of test compound was estimated from the dose-response curve.

For series [3], the system named is serum ALT activity induced by CCl4. The series can be described thus: Protective effect against acute hepatic damage induced by carbon tetrachloride (serum ALT). The format is in vivo. The following applies: Mus musculus; mice, 50 mg/kg oral, 6 h before CCl4 (50 ul/kg oral); ALT 24 h after CCl4; read-out: Inhibitory (%): protective effect against increase of serum ALT activity induced by CCl4. The protocol:
Principle; Carbon tetrachloride (CCl4) is a well-known hepatotoxic agent, thus widely used to produce experimental animal models for screening the potential drugs acting upon hepatic diseases. In this experiment test compounds were administered to mice prior to treatment with CCl4. 24 Hours after the CCl4 treatment, the animals were sacrificed and serum alanine aminotransferase (ALT) levels were determined. The hepatoprotective effect of a test compound was evaluated by the suppressive action against the increase of serum ALT induced by CCl4.
Method; The experimental animals were divided into normal, CCl4 treated and test compound treated groups. Each group consisted of 8 mice with body weight of 20-25 grams. The test compounds were suspended in 0.2% sodium carboxy methyl cellulose (CMC-Na) solution and administered orally at the dose of 50 mg/125 ml/kg body weight. Only the vehicle, 0.2% CMC-Na solution, was administered to the normal and to the CCl4 treated group instead of the test compound suspension. 6 Hours after the drug administration, the CCl4 solution in olive oil was administered orally to the CCl4 treated- and the test compound treated group at the dose of 50 ul/25 ml olive oil/kg body weight. The normal group was administered olive oil only at the same dose. 24 Hours after the CCl4 administration, blood samples were collected from the orbital sinus of the animals and the sera were obtained by centrifugation The serum ALT activities were monitored using an automatic blood analyzer (Gilford, SBA 300). The hepatoprotective effect of the test compounds was expressed by the suppressive percentage against the increase of serum ALT level induced by CCl4 calculated by the following formula; [formula]

As for `CC(C)OC(=O)C(C(=O)NC1CCSC1=O)=C1SC=CS1` (centres unmarked) [14(a)], the LD50 at 336 h in series [1] is > 5000 mg/kg. Moreover, the ED50 in series [2] is 10 mg/kg. Besides, in series [3], the inhibition in vivo at 50 mg/kg came to 99.2%.
The like results for `CCOC(=O)C(C(=O)NC1CCSC1=O)=C1SC=CS1` (centres unmarked) [14(b), Ethyl 2-(1,3-dithiol-2-ylidene)-2-[N-(tetrahydrothiophen-2-on-3-yl)carbamoyl]acetate] were, in that order, > 4000 mg/kg, 25 mg/kg and 88.7%.
In series [1], `CC(C)OC(=O)C(C(=O)Nc1ccccc1)=C1SC=CS1` [17(a), Isopropyl 2-(1,3-dithiol-2-ylidene)-2-(N-phenylcarbamoyl)acetate] returned a 50% lethal dose (LD50) at 336 h of 3000 mg/kg. Further, the median effective dose (ED50) in series [2] was 8 mg/kg. In addition, in series [3], the inhibition in vivo at 50 mg/kg is 100%.
The like results for `CCC(C)OC(=O)C(C(=O)Nc1ccccc1)=C1SC=CS1` (centres unmarked) [17(b), sec-Butyl 2-(1,3-dithiol-2-ylidene)-2-(N-phenylcarbamoyl)acetate] were, in that order, > 5000 mg/kg, 12.5 mg/kg and 99.8%.
The matching figures for `CCOC(=O)C(C(=O)Nc1ccccc1)=C1SC=CS1` [17(c), Ethyl 2-(1,3-dithiol-2-ylidene)-2-(N-phenylcarbamoyl)acetate]: > 5000 mg/kg, 8 mg/kg and 100%.
As for `COC(=O)C(C(=O)Nc1ccccc1)=C1SC=CS1` [17(d), Methyl 2-(1,3-dithiol-2-ylidene)-2-(N-phenylcarbamoyl)acetate], the ED50 in series [2] is 20 mg/kg. The inhibition in vivo at 50 mg/kg in series [3] stood at 98.2%.
The matching figures for `CC(C)OC(=O)C(C(=O)Nc1ccc(F)c(Cl)c1)=C1SC=CS1` [17(k)]: 6.25 mg/kg and 93.8%.
The like results for `CCOC(=O)C(C(=O)Nc1ccc(OC)cc1)=C1SC=CS1` [17(m), Ethyl 2-(1,3-dithiol-2-ylidene)-2-[N-(4-methoxyphenyl)carbamoyl]acetate] were, in that order, 50 mg/kg and 61.5%.
Regarding `CCC(C)OC(=O)C(C(=O)Nc1ccc(OC)cc1)=C1SC=CS1` (centres unmarked) [17(n), sec-Butyl 2-(1,3-dithiol-2-ylidene)-2-[N-(4-methoxyphenyl)carbamoyl]acetate], in series [1], the LD50 at 336 h is > 5000 mg/kg. Further, in series [2], the 50% effective dose (ED50) was 10 mg/kg. Besides, the inhibition in vivo at 50 mg/kg in series [3] was 96.5%.
The like results for `CC(C)OC(=O)C(C(=O)Nc1ccccn1)=C1SC=CS1` [18(a), Isopropyl 2-(1,3-dithiol-2-ylidene)-2-[N-(2-pyridyl)carbamoyl]acetate] were, in that order, 4200 mg/kg, < 6.25 mg/kg and 99.8%.
The molecule `CCC(C)OC(=O)C(C(=O)Nc1ccccn1)=C1SC=CS1` (centres unmarked) [18(b), sec-Butyl 2-(1,3-dithiol-2-ylidene)-2-[N-(2-pyridyl)carbamoyl]acetate] yielded an LD50 at 336 h in series [1] of 5000 mg/kg. For the same molecule, the ED50 in series [2] was 7 mg/kg. Further, in series [3], the inhibition in vivo at 50 mg/kg is 100%.
On to `CC(C)OC(=O)C(C(=O)Nc1cccnc1)=C1SC=CS1` [18(c), Isopropyl 2-(b 1,3-dithiol-2-ylidene)-2-[N-(3-pyridyl)carbamoyl]acetate], for which the 50% effective dose (ED50) in series [2] was 6.25 mg/kg. Further, the inhibition in vivo at 50 mg/kg in series [3] was 100%.
`CC(C)OC(=O)C(C(=O)Nc1ccncc1)=C1SC=CS1` [18(d), Isopropyl 2-(1,3-dithiol-2-ylidene)-2-[N-(4-pyridyl)carbamoyl]acetate] came in with a median lethal dose (LD50) at 336 h in series [1] of 1100 mg/kg. The ED50 in series [2] was < 6.25 mg/kg. For the same molecule, in series [3], the inhibition in vivo at 50 mg/kg worked out at 99.7%.
On to `Cc1ccnc(NC(=O)C(C(=O)OC(C)C)=C2SC=CS2)c1` [18(e), Isopropyl 2-(1,3-dithiol-2-ylidene)-2-[N-(4-methyl-2-pyridyl)carbamoyl]acetate], for which the 50% lethal dose (LD50) at 336 h in series [1] is > 5000 mg/kg. For the same molecule, the 50% effective dose (ED50) in series [2] was 20 mg/kg. The inhibition in vivo at 50 mg/kg in series [3] is 99.7%.
The like results for `Cc1cccc(NC(=O)C(C(=O)OC(C)C)=C2SC=CS2)n1` [18(f), Isopropyl 2-(1,3-dithiol-2-ylidene)-2-[N-(6-methyl-2-pyridyl)carbamoyl]acetate] were, in that order, > 5000 mg/kg, 12.5 mg/kg and 100%.
The like results for `CC(C)OC(=O)C(C(=O)Nc1ccc(Cl)cn1)=C1SC=CS1` [18(g)] were, in that order, > 5000 mg/kg, 25 mg/kg and 77.3%.
On to `Cc1cc(NC(=O)C(C(=O)OC(C)C)=C2SC=CS2)no1` [18(h), Isopropyl 2-(1,3-dithiol-2-ylidene)-2-[N-(5-methyl-3-isoxazolyl)carbamoyl]acetate], for which the LD50 at 336 h in series [1] was > 5000 mg/kg. In addition, the ED50 in series [2] was 9 mg/kg. Further, in series [3], the inhibition in vivo at 50 mg/kg came to 100%.
In the case of `CC(C)OC(=O)C(C(=O)Nc1nncs1)=C1SC=CS1` [18(i), Isopropyl 2-(1,3-dithiol-2-ylidene)-2-[N-(1,3,4-thiadiazol-2-yl)carbamoyl]acetate], in series [1], the LD50 at 336 h was > 5000 mg/kg. Also, the ED50 in series [2] is < 6.25 mg/kg. In addition, in series [3], the inhibition in vivo at 50 mg/kg was determined as 100%.
The like results for `Cc1nnc(NC(=O)C(C(=O)OC(C)C)=C2SC=CS2)s1` [18(j)] were, in that order, > 5000 mg/kg, 10 mg/kg and 100%.
The matching figures for `CC(C)OC(=O)C(C(=O)Nc1cnccn1)=C1SC=CS1` [18(l), Isopropyl 2-(1,3-dithiol-2-ylidene)-2-[N-(pyrazin-2yl)carbamoyl]acetate]: > 5000 mg/kg, < 6.25 mg/kg and 99.8%.
The like results for `CC(C)OC(=O)C(C(=O)Nc1[nH]cnc1C(N)=O)=C1SC=CS1` [18(o), Isopropy 2-(1,3-dithiol-2-ylidene)-2-[N-(4-carboxamido-5-imidazolyl)carbamoyl]acetate] were, in that order, > 5000 mg/kg, 25 mg/kg and 98.7%.
Take `CC(C)OC(=O)C(C(=O)Nc1nccs1)=C1SC=CS1` [19(a), Isopropyl 2-(b 1,3-dithiol-2-ylidene)-2-[N-(2-thiazolyl)-carbamoyl) acetate]: in series [1], the median lethal dose (LD50) at 336 h was > 5000 mg/kg. The 50% effective dose (ED50) in series [2] is 6.25 mg/kg. Besides, the inhibition in vivo at 50 mg/kg in series [3] was 100%.
The matching figures for `CCOC(=O)C(C(=O)Nc1nccs1)=C1SC=CS1` [19(b)]: 2500 mg/kg, 6.25 mg/kg and 101%.
As to `CCC(C)OC(=O)C(C(=O)Nc1nccs1)=C1SC=CS1` (centres unmarked) [19(c), sec-Butyl 2-(1,3-dithiol-2-ylidene)-2-[N-(2-thiazolyl)-carbamoyl]acetate], the ED50 in series [2] was < 6.25 mg/kg. The inhibition in vivo at 50 mg/kg in series [3] amounted to 100%.
Molecule `Cc1csc(NC(=O)C(C(=O)OC(C)C)=C2SC=CS2)n1` [19(d), Isopropyl 2-(1,3-dithiol-2-ylidene)-2-[N-(4-methyl-2-thiazolyl)carbamoyl]acetate] yielded a median lethal dose (LD50) at 336 h in series [1] of 5000 mg/kg. Further, the ED50 in series [2] was < 6.25 mg/kg. In series [3], the inhibition in vivo at 50 mg/kg amounted to 97.2%.
`Cc1cnc(NC(=O)C(C(=O)OC(C)C)=C2SC=CS2)s1` [19(e), Isopropyl 2-(1,3-dithiol-2-ylidene)-2-[N-(5-methyl-2-thiazolyl)carbamoyl]acetate]: in series [2], the ED50 is 25 mg/kg. Further, in series [3], the inhibition in vivo at 50 mg/kg was determined as 9.2%.
The like results for `CCOC(=O)C(C(=O)Nc1ccc(O)cc1)=C1SC=CS1` [22(b), Ethyl 2-(1,3-dithiol-2-ylidene)-2-[N-(4-hydroxyphenyl)-carbamoyl]acetate] were, in that order, < 12.5 mg/kg and 90.9%.
